PMC5421877, “SOCS3 inhibits the pathological effects of IL-22 in non-melanoma skin tumor-derived keratinocytes” (Oncotarget, 2017)

Legend:
healthy keratinocytes [1] = experiment: CyQUANT proliferation assay, healthy keratinocytes; format: cell-based, human; details: healthy KC; PD98059 20 μM or S3I-201 10 μM, 48 h
Method: (§1) Figure 6 IL-22-induced proliferation and migration of healthy and transformed keratinocytes is counteracted by KIR-ESS peptide (A) Healthy KC, CAL27 and CAL33 cultures were plated in 96-well plates in quadruplicate for each condition. After 1 day, cells were pre-treated or not with Ctrl1 or KIR-ESS peptides (40 μM), or S31-201 ([…]) and PD98059 ([…]) chemical inhibitors, and, then, stimulated or not with 50 ng/ml of IL-22. Data relative to 48-h treatment are shown and expressed as the values of fluorescence intensity obtained from untreated and IL-22-treated ± SD. Three independent experiments were performed. *p < 0.01. […] (C) Cell-free area was measured and indicated as residual wound. […]
(§2) SOCS1- and SOCS3 stably transfected keratinocytes or cultured keratinocytes previously transfected with SOCS3 or control siRNA were seeded in 96-well plates (1.5–2.0 × 10^4 cells/well), and, the day after, starved in medium without serum. At 60% confluence, cells were treated with 75 ng/ml of IL-22 for 3 days, stained with 0.5% crystal violet (Bio-Rad, Hercules, CA, USA), and then analyzed in an ELISA reader (model 3550 UV ELISA reader; Bio-Rad). […] After 1-h pre-incubation, cells were treated with IL-22 or left unstimulated, cultured for other 24, 48 and 72 h, and the number of viable cells determined by CyQUANT Cell Proliferation Assay, accordingly to manufacture's protocol. […]

[2] = test system: SCC-cell lines (CAL27 and CAL33); experiment: CyQUANT proliferation assay, SCC-cell lines; format: cell-based; details: PD98059 20 μM or S3I-201 10 μM, 48 h
Method: as §1, §2

healthy keratinocytes [3] = experiment: Scratch assay (migration), healthy keratinocytes; format: cell-based, human; details: without IL-22, 40 μM peptide or PD98059 20 μM, 24 h
Method: as §1, with “0.01. (B) Scratch assays were carried out on healthy or SCC-lines, pre-incubated with mitomycin C (5 mg/ml), pre-treated with Ctrl1 or KIR-ESS peptides (40 μM), or S31-201 ([…]) or PD98059 ([…]) chemical inhibitors, and, then, stimulated or not with IL-22 for 24 h.” for “0.01.”
Cultured keratinocytes and SCC cell lines were grown at 100% confluence on type IV collagen (20 μg/ml), and then incubated with mitomycin C (5 mg/ml) (Sigma-Aldrich) for 1 h. […] The residual gap between migrating keratinocytes was measured with a computer-assisted image analysis system (Axiovision; Zeiss, Oberkochen, Germany), and expressed as percentage of the initial scratched area.

CAL27 cells = experiment: Scratch assay (migration), CAL27; format: cell-based; details: CAL27; 40 μM peptide, PD98059 20 μM or S3I-201 10 μM; IL-22 50 ng/ml, 24 h
Method: (§3) Figure 6 IL-22-induced proliferation and migration of healthy and transformed keratinocytes is counteracted by KIR-ESS peptide (A) Healthy KC, CAL27 and CAL33 cultures were plated in 96-well plates in quadruplicate for each condition. After 1 day, cells were pre-treated or not with Ctrl1 or KIR-ESS peptides (40 μM), or S31-201 ([…]) and PD98059 ([…]) chemical inhibitors, and, then, stimulated or not with 50 ng/ml of IL-22. Data relative to 48-h treatment are shown and expressed as the values of fluorescence intensity obtained from untreated and IL-22-treated ± SD. Three independent experiments were performed. *p < 0.01. (B) Scratch assays were carried out on healthy or SCC-lines, pre-incubated with mitomycin C (5 mg/ml), pre-treated with Ctrl1 or KIR-ESS peptides (40 μM), or S31-201 ([…]) or PD98059 ([…]) chemical inhibitors, and, then, stimulated or not with IL-22 for 24 h. Microscopic images were taken immediately after and 24 h after wound induction on confluent cell layers. Initial scratches (0 h) are dashed blank. (C) Cell-free area was measured and indicated as residual wound. Data are reported as healed wound (gray area of bars) vs residual wound (white area of bars) which a value of 100% was given. *p < 0.01.
(§4) Cultured keratinocytes and SCC cell lines were grown at 100% confluence on type IV collagen (20 μg/ml), and then incubated with mitomycin C (5 mg/ml) (Sigma-Aldrich) for 1 h. Cell monolayers were scratched with the tip of a p-200 pipette to create uniform cell-free zones, and, then, pre-treated with appropriate concentrations of SOCS3 mimetic or control peptides, or with 10 μM STAT3 (S3I-201, Santa Cruz) and 20 μM Erk1/2 (PD98059, Calbiochem) inhibitors for 1 h, before treating by 50 ng/ml of IL-22. Microscopy pictures were taken with a digital camera at different time points following IL-22 treatment. The residual gap between migrating keratinocytes was measured with a computer-assisted image analysis system (Axiovision; Zeiss, Oberkochen, Germany), and expressed as percentage of the initial scratched area.

CAL33 cells = experiment: Scratch assay (migration), CAL33; format: cell-based; details: 24 h
Method: as §3, §4

Structure (SMILES): COc1cccc(-c2cc(=O)c3ccccc3o2)c1N [PD98059]
- proliferation (effect relative to KIR-ESS) (healthy keratinocytes [1]): KIR-ESS effect was similar to that observed in all healthy and transformed keratinocyte cultures
- proliferation (effect relative to KIR-ESS) [2]: KIR-ESS effect was similar to that observed in all healthy and transformed keratinocyte cultures
- wound closure / migration, resting cells (healthy keratinocytes [3]): efficacious in inhibiting migration of CAL27 cells and healthy or CAL33 keratinocytes, respectively
- wound closure, IL-22-treated (CAL27 cells): effect similar to those obtained with the chemical Erk1/2 and STAT3 inhibitors
- wound closure / migration, resting cells (CAL33 cells; CAL33, without IL-22, 40 μM peptide or PD98059 20 μM): efficacious in inhibiting migration of CAL27 cells and healthy or CAL33 keratinocytes, respectively
- wound closure, IL-22-treated (CAL33 cells; CAL33, 40 μM peptide, PD98059 20 μM or S3I-201 10 μM, IL-22 50 ng/ml): effect similar to those obtained with the chemical Erk1/2 and STAT3 inhibitors
